Results on 18 compounds are retold here after US4471117A, “3,4-Dihydro-2H-pyrimido(2,1-b)benzothiazoles” (Janssen Pharmaceutica N.V., priority 1980, dated 1984).

pIC50: −log10 of the molar value. Counter-ions that a name gives are not always drawn. Like-named read-outs stand apart in the source and are kept apart here. Some results are limits rather than exact numbers.

In assay [1] the target is T1, monoamine oxidase (type A, tryptamine substrate) (Rattus norvegicus, UniProt P21396).
T1 sequence (P21396 1-526): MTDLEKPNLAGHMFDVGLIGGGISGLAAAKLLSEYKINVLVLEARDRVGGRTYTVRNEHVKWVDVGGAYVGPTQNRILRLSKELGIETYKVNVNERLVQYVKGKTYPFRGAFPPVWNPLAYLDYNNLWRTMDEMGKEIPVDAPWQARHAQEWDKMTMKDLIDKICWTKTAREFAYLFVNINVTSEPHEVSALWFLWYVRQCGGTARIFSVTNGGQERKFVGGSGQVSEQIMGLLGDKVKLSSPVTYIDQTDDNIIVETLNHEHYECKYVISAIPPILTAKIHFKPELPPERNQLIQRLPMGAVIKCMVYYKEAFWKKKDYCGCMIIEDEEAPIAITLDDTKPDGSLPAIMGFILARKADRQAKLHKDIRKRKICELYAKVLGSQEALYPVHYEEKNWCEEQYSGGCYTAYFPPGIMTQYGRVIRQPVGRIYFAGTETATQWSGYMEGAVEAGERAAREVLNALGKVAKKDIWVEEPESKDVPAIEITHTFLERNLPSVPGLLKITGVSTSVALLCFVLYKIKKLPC
In words: In-vitro monoamine oxidase inhibition, [14C]tryptamine as substrate. The conditions noted are these: rat brain monoamine oxidase extract, 37° C., 20 minutes, pH 7.4, read-out: I.C.50 -value using as substrate [14C]tryptamine. It counts as biochemical.

The target in assay [2] is T2, monoamine oxidase (type B, β-phenylethylamine substrate) (Rattus norvegicus, UniProt P19643).
T2 sequence (P19643 1-520): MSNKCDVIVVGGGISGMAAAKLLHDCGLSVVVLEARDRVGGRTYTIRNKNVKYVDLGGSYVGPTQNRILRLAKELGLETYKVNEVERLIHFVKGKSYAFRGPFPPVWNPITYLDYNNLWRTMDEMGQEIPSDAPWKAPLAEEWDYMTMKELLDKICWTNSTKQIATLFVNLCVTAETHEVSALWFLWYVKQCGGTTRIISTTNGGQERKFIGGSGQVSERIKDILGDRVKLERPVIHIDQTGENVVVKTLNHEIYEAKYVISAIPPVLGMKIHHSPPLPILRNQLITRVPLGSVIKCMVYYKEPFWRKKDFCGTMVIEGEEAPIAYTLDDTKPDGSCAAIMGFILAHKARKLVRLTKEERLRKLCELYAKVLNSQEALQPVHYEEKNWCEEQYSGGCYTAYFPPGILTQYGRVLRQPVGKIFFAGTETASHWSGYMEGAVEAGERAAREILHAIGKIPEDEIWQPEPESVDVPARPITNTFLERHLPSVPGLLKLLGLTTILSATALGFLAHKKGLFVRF
Nature of the assay: In-vitro monoamine oxidase inhibition, [14C]phenylethylamine hydrochloride as substrate. Type of assay: biochemical. As to conditions: rat brain monoamine oxidase extract, 37° C., 20 minutes, pH 7.4, read-out: I.C.50 -value using as substrate [14C]phenylethylamine.HCl.

In the case of `CCC(CC)Nc1ccc2c(c1)N1CCCN=C1S2` [7-NHCH(C2 H5)2, N-(1-ethylpropyl)-3,4-dihydro-2H-pyrimido[2,1-b]benzothiazol-7-amine], the pIC50 in assay [1] (Table 1) was 8.47; in assay [2] (Table 1), 6.52.
On to `COc1cc(CNc2ccc3c(c2)SC2=NCCCN23)cc(OC)c1OC` [8-NHCH2 [3,4,5-(OCH3)3C6 H2]], for which the pIC50 in assay [1] (Table 1) is 4.70; in assay [2] (Table 1) it was 7.47.
Turning to `CCNc1cccc2c1SC1=NCCCN12` [9-NHC2 H5, N-ethyl-3,4-dihydro-2H-pyrimido[2,1-b]benzothiazol-9-amine], the figures for the pIC50 in assay [1] (Table 1) and in assay [2] (Table 1) were 8.52 and 4.00, respectively.
The corresponding values for `CC(C)Nc1ccc2c(c1)SC1=NCCCN12` [8-NHi.C3 H7] are 7.05 and 4.70.
For `c1cc2c(cc1NC1CCCC1)N1CCCN=C1S2` [7-NHc.C5 H9], in that order: 8.30 and 6.92.
For the compound `c1ccc2cc3c(cc2c1)SC1=NCCCN13` [7,8-(CHCHCHCH)], the figures for the pIC50 in assay [1] (Table 1) and in assay [2] (Table 1) were 7.52 and 5.05, respectively.
Regarding `CCOC(=O)C(=CNc1ccc2c(c1)SC1=NCCCN12)C(=O)OCC` [8-NHCHC(COOEt)2], the pIC50 is 4.70 in assay [1] (Table 1) and 6.80 in assay [2] (Table 1).
Consider `Cc1ccc(C(C)(C)C)c2c1N1CCCN=C1S2` [6-CH3,9-C(CH3)3], for which the pIC50 is 7.19 in assay [1] (Table 1) and under 4.00 in assay [2] (Table 1).
Take `COc1ccc(CNc2ccc3c(c2)N2CCCN=C2S3)cc1` [7-NHCH2 (4-OCH3C6 H4)]: the figures for the pIC50 in assay [1] (Table 1) and in assay [2] (Table 1) were 6.60 and 7.19, respectively.
With `C=CC[N+]1=C2Sc3ccc(CCCCCCCCC)cc3N2CCC1`, the figures for the pIC50 in assay [1] (Table 2) and in assay [2] (Table 2) were 6.60 and 6.42, respectively.
For the compound `NC(=O)Nc1ccc2c(c1)N1CCCN=C1S2` [Example 7-NHCONH2, N-(3,4-dihydro-2H-pyrimido[2,1-b]benzothiazol-7-yl)urea], the pIC50 was 6.07 in assay [1] (Table 1) and 4.92 in assay [2] (Table 1).
For `CCCCc1ccc2c(c1)SC1=NCCCN12` [8-C4 H9], in that order: 7.49 and 6.59.
For `c1cc2c(cc1C1CCCCC1)SC1=NCCCN12` [8-c.C6 H11], in that order: 8.07 and 7.30.
For `O=C(c1ccccc1)c1ccc2c(c1)N1CCCN=C1S2` [7-COC6 H5], in that order: 6.92 and 5.60.
With `CC[N+]1=C2Sc3ccc(NC(C)C)cc3N2CCC1`, the figures for the pIC50 in assay [1] (Table 2) and in assay [2] (Table 2) were 7.96 and 4.35, respectively.
Consider `Cc1ccc(CNc2ccc3c(c2)SC2=NCCCN23)cc1` [8-NHCH2 (4-CH3C6 H4)], for which the pIC50 in assay [1] (Table 1) was 6.00; in assay [2] (Table 1) it was 7.70.
The corresponding values for `Nc1cccc2c1SC1=NCCCN12` [Example 9-NH2, 3,4-dihydro-2H-pyrimido[2,1-b]benzothiazol-9-amine dihydrochloride] are 6.46 and 4.05.
`CCCc1ccc2c(c1)N1CCCN=C1S2` [7-C3 H7]: the pIC50 in assay [1] (Table 1) was 7.70; in assay [2] (Table 1) it was 5.92.
